From US20200002303A1, “C-GLYCOSIDE COMPOUNDS USEFUL FOR TREATING DISEASE” (Fimbrion Therapeutics, Inc., priority 2016, published 2020)

Biological target: T1, FimH (Escherichia coli, UniProt Q1R2J4)
T1 construct: performed with UTI89 bacteria and guinea pig red blood cells; endogenous in cells; host or cells: UTI89 bacteria (whole cells, type 1 piliated)
Type: cell-based
Settings: concentration reducing bacterial agglutination of guinea pig red blood cells by greater than 90%; UTI89 bacteria
Procedure: The hemagglutination inhibition (HAI) assay was performed with UTI89 bacteria and guinea pig red blood cells, as previously described (S. J. Hultgren, W. R. Schwan, A. J. Schaeffer, J. L. Duncan Infect. Immun. 1986, 54, 613-620).

Row | SMILES | HAI titer EC>90 [µM]
1 | Cc1cc(-c2ccc3ccn(C(C)C)c(=O)c3c2)ccc1[C@@H](O)[C@H]1O[C@H](CO)[C@@H](O)[C@H](O)[C@@H]1O [Example 31, 7-(4-((R)-Hydroxy ((2R,3S,4S,5S,6R)-3,4,5-trihydroxy-6-(hydroxymethyl)-tetrahydro-2H-pyran-2-yl)methyl)-3-methylphenyl)-2-isopropylisoquinolin-1 (2H)-one] | 0.006
2 | Cc1cc(-c2ccc3c(c2)C(=O)N(C(C)C)CC3)ccc1[C@@H](O)[C@H]1O[C@H](CO)[C@@H](O)[C@H](O)[C@@H]1O [Example 32, 7-(4-((R)-Hydroxy ((2R,3S,4S,5S,6R)-3,4,5-trihydroxy-6-(hydroxymethyl)-tetrahydro-2H-pyran-2-yl)methyl)-3-methylphenyl)-2-isopropyl-3,4-dihydroisoquinolin-1 (2H)-one] | 0.006
3 | O=C1NCCc2ccc(-c3ccc([C@@H](O)[C@H]4O[C@H](CO)[C@@H](O)[C@H](O)[C@@H]4O)c(C(F)(F)F)c3)cc21 [Example 33, 7-(4-((R)-Hydroxy ((2R,3S,4S,5S,6R)-3,4,5-trihydroxy-6-(hydroxymethyl)-tetrahydro-2H-pyran-2-yl)methyl)-3-(trifluoromethyl)phenyl)-3,4-dihydroisoquinolin-1 (2H)-one] | 0.006
4 | O=C1NCCc2ccc(-c3ccc([C@H](O)[C@H]4O[C@H](CO)[C@@H](O)[C@H](O)[C@@H]4O)c(C(F)(F)F)c3)cc21 [Example 34, 7-(4-((S)-hydroxy ((2R,3S,4S,5S,6R)-3,4,5-trihydroxy-6-(hydroxymethyl)tetrahydro-2H-pyran-2-yl)methyl)-3-(trifluoromethyl)phenyl)-3,4-dihydroisoquinolin-1 (2H)-one] | 3
5 | CNC(=O)c1cncc(-c2ccc([C@@H](O)[C@H]3O[C@H](CO)[C@@H](O)[C@H](O)[C@@H]3O)c(C)c2)c1 [Example 35, 5-(4-((R)-Hydroxy ((2R,3S,4S,5S,6R)-3,4,5-trihydroxy-6-(hydroxymethyl)-tetrahydro-2H-pyran-2-yl)methyl)-3-methylphenyl)-N-methylnicotinamide] | 0.01
6 | Cc1cc(-c2cn3ccccc3n2)ccc1[C@@H](O)[C@H]1O[C@H](CO)[C@@H](O)[C@H](O)[C@@H]1O [Example 36, (2R,3S,4S,5S,6R)-2-((R)-Hydroxy (4-(imidazo[1,2-a]pyridin-2-yl)-2-methylphenyl)methyl)-6-(hydroxymethyl)-tetrahydro-2H-pyran-3,4,5-triol] | 0.019
7 | Cc1cc(-c2cccc(C(=O)Nc3ccccn3)c2)ccc1[C@@H](O)[C@H]1O[C@H](CO)[C@@H](O)[C@H](O)[C@@H]1O [Example 37, 4′-((R)-Hydroxy ((2R,3S,4S,5S,6R)-3,4,5-trihydroxy-6-(hydroxymethyl)-tetrahydro-2H-pyran-2-yl)methyl)-5′-methyl-N-(pyridin-2-yl)biphenyl-3-carboxamide] | 0.012
8 | CNC(=O)c1cc(C(=O)NC)cc(-c2ccc([C@@H](O)[C@H]3O[C@H](CO)[C@@H](O)[C@H](O)[C@@H]3O)c(C)c2)c1 [Example 38, 4′-((R)-Hydroxy ((2R,3S,4S,5S,6R)-3,4,5-trihydroxy-6-(hydroxymethyl)-tetrahydro-2H-pyran-2-yl)methyl)-N^3,N^5,3′-trimethylbiphenyl-3,5-dicarboxamide] | 0.007
9 | CNC(=O)c1cccc(-c2ccc([C@@H](O)[C@H]3O[C@H](CO)[C@@H](O)[C@H](O)[C@@H]3O)c(C(F)(F)F)c2)c1 [Example 39, 4′-((R)-Hydroxy ((2R,3S,4S,5S,6R)-3,4,5-trihydroxy-6-(hydroxymethyl)-tetrahydro-2H-pyran-2-yl)methyl)-N-methyl-5′-(trifluoromethyl)biphenyl-3-carboxamide] | 0.015
10 | Cc1cc(-c2cccc(C(=O)N(C)C)c2)ccc1[C@@H](O)[C@H]1O[C@H](CO)[C@@H](O)[C@H](O)[C@@H]1O [Example 41, 4′-((R)-Hydroxy ((2R,3S,4S,5S,6R)-3,4,5-trihydroxy-6-(hydroxymethyl)-tetrahydro-2H-pyran-2-yl)methyl)-N,N,5′-trimethylbiphenyl-3-carboxamide] | 0.057
11 | CNC(=O)c1cc(C#N)cc(-c2ccc([C@@H](O)[C@H]3O[C@H](CO)[C@@H](O)[C@H](O)[C@@H]3O)c(C)c2)c1 [Example 42, 5-Cyano-4′-((R)-hydroxy ((2R,3S,4S,5S,6R)-3,4,5-trihydroxy-6-(hydroxymethyl)-tetrahydro-2H-pyran-2-yl)methyl)-N,5′-dimethylbiphenyl-3-carboxamide] | 0.006
12 | CNC(=O)c1cc(-c2ccc([C@@H](O)[C@H]3O[C@H](CO)[C@@H](O)[C@H](O)[C@@H]3O)c(C)c2)ccc1C#N [Example 43, 4-Cyano-4′-((R)-hydroxy ((2R,3S,4S,5S,6R)-3,4,5-trihydroxy-6-(hydroxymethyl)-tetrahydro-2H-pyran-2-yl)methyl)-N,5′-dimethylbiphenyl-3-carboxamide] | 0.006
13 | CNC(=O)c1cccc(-c2ccc([C@@H](N=[N+]=[N-])[C@H]3O[C@H](CO)[C@@H](O)[C@H](O)[C@@H]3O)c(C)c2)c1 [Example 44, 4′-((R)-azido((2R,3S,4R,5S,6R)-3,4,5-trihydroxy-6-(hydroxymethyl)tetrahydro-2H-pyran-2-yl)methyl)-N,3′-dimethylbiphenyl-3-carboxamide] | 0.062
14 | CNC(=O)c1cccc(-c2ccc([C@@H](O)[C@H]3O[C@H](CO)[C@@H](O)[C@H](O)[C@@H]3O)c(Cl)c2)c1 [Example 45, 3′-chloro-4′-((R)-hydroxy((2R,3S,4S,5S,6R)-3,4,5-trihydroxy-6-(hydroxymethyl)tetrahydro-2H-pyran-2-yl)methyl)-N-methylbiphenyl-3-carboxamide] | 0.047
15 | Cc1cc(-c2ccc(C#N)cc2)ccc1[C@@H](O)[C@H]1O[C@H](CO)[C@@H](O)[C@H](O)[C@@H]1O [Example 46, 4′-((R)-hydroxy((2R,3S,4S,5S,6R)-3,4,5-trihydroxy-6-(hydroxymethyl)tetrahydro-2H-pyran-2-yl)methyl)-3′-methylbiphenyl-4-carbonitrile] | 0.053
16 | Cc1cc(N=[N+]=[N-])ccc1[C@@H](O)[C@H]1O[C@H](CO)[C@@H](O)[C@H](O)[C@@H]1O [Example 47, (2R,3S,4S,5S,6R)-2-((R)-(4-azido-2-methylphenyl)(hydroxy)methyl)-6-(hydroxymethyl)tetrahydro-2H-pyran-3,4,5-triol] | 0.25
17 | Cc1cc(-n2cc(-c3ccccc3)nn2)ccc1[C@@H](O)[C@H]1O[C@H](CO)[C@@H](O)[C@H](O)[C@@H]1O [Example 48, (2R,3S,4S,5S,6R)-2-((R)-hydroxy(2-methyl-4-(4-phenyl-1H-1,2,3-triazol-1-yl)phenyl)methyl)-6-(hydroxymethyl)tetrahydro-2H-pyran-3,4,5-triol] | 0.016
